Here are results for 9 compounds from patent US20240208957A1, “TRIAZINE DERIVATIVE AS REVERSIBLE AND IRREVERSIBLE COVALENT INHIBITORS OF PI3K” (UNIVERSITÄT BASEL, priority 2021, published 2024).

One data set has as its target p110α (PI3Kα) (Homo sapiens, UniProt P42336). In words: LanthaScreen determination of kinetic constants (kinact, Ki) for p110α.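 As to all read-outs here: covalent inhibition constants for p110α come from LanthaScreen data, fitted globally by numerical integration in KinTek Global Kinetic Explorer software.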 The class given is binding. The conditions noted are these: for kinact/KI: PI3Kα, read-out: kinact/Ki; for Ki: dissociation constant of the first reversible binding, mean of 3; for kinact: mean of 3 independent measurements, global fitting with KinTek, read-out: kinact PI3Kα.

Data set [1] concerns pSer473 of PKB/Akt in SKOV3 cells. In words: In-Cell Western cellular PI3K signaling, pSer473 of PKB/Akt in SKOV3 cells. In kind it is cell-based. Conditions: Homo sapiens, SK-OV-3; SKOV3 cells; mean of 2 or 3 independent measurements; read-out: IC50 pPKB (S473) SKOV3. The protocol: Protein phosphorylation was detected as follows: pSer473 of PKB/Akt with rabbit polyclonal antibody from Cell Signaling Technology (CST) (#4058) by In-Cell Western assays, where 1.2×10^4 SKOV3 cells/well in 96-well plates were plated (Cell Carrier, PerkinElmer) for 24 hours (37° C., 5% CO2), as described in Ref.^21.

A short description of data set [2]: Intrinsic reactivity of the inhibitors with βME measured with HPLC. In kind it is physicochemical. Conditions: 1 mM inhibitor + 600 mM βME, n = 3, mean. From the text:
E˜I→EI • ii) off-target reactions with ubiquitous sulfhydryls (S) and other nucleophils present in physiologic environments such as cells and body fluids are driven by the intrinsic reactivity of the warhead that is defined by Kchem driving the conversion of S and I to form the sulfhydryl-adduct (SI) [table]

The conditions of data set [3]: background statement; cited from earlier work.
For data set [4] the following is noted: background statement; cited from earlier work. The source holds these as a separate data set.

p110α (PI3Kα), sequence (P42336 whole entry): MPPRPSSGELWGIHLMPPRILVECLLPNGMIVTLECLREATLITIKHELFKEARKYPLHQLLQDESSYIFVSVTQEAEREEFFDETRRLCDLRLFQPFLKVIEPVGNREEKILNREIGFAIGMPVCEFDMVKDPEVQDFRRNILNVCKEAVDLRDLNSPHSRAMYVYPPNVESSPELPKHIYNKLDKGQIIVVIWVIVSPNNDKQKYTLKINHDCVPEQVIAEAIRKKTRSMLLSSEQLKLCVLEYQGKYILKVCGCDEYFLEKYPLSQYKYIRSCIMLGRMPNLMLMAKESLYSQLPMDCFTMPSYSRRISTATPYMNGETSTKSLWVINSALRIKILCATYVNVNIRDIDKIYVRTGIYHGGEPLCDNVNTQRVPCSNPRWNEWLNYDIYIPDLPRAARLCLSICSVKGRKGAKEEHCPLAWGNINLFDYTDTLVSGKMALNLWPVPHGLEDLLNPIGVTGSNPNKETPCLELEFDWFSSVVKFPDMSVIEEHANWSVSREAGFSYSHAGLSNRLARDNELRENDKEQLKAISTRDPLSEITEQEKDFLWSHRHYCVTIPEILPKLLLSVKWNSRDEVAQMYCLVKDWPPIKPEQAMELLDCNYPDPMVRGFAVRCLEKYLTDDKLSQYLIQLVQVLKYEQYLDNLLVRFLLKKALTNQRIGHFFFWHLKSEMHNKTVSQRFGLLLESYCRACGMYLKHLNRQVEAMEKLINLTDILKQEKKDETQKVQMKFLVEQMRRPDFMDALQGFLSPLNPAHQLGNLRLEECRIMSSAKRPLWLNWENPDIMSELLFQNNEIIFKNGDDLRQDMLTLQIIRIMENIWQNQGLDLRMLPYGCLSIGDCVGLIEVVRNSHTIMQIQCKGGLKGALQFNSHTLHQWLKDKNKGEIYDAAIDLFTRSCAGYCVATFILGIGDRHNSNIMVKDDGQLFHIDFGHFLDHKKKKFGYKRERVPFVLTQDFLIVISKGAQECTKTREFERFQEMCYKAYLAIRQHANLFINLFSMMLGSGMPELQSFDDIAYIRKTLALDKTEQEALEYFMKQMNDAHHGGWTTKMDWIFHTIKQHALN
p110α (PI3Kα), sequence (P27986 whole entry partner): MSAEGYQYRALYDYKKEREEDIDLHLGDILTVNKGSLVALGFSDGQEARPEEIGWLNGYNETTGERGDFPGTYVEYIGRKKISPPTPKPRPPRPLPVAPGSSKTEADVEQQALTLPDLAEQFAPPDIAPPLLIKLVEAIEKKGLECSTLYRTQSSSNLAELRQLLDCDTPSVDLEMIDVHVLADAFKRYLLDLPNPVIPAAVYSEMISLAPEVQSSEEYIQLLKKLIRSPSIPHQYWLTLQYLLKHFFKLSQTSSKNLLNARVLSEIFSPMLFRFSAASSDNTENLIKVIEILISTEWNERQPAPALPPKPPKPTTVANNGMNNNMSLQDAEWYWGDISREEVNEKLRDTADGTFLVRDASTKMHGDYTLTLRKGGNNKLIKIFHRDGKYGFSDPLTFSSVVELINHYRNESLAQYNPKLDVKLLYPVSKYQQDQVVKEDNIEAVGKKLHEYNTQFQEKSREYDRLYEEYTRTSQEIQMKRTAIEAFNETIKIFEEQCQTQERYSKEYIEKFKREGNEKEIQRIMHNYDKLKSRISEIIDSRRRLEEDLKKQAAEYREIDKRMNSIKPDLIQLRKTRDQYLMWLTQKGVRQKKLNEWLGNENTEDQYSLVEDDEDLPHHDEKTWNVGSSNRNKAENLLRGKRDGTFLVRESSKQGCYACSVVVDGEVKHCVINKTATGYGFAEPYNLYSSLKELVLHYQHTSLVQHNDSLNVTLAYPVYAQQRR
Protocol for p110α (PI3Kα): Apparent dissociation constants of compounds [Ki(app)] for p110α were determined by LanthaScreen Technology (Life Technologies), as described in Ref.^21.
Maximum potential rate of covalent bond formation (Kinact) and dissociation constant of the first reversible binding (Ki) of compounds for p110α were determined by LanthaScreen Technology (Life Technologies). The calculation of kinetic parameters was carried out through global fitting for numerical integration by using KinTek Global Kinetic Explorer modelling software^22-27.

Consider `C=CC(=O)N1CCC[C@H](C(=O)N(C)CC(=O)N2CCN(c3nc(-c4cnc(N)nc4C(F)F)nc(N4CCOCC4)n3)CC2)C1` [Compound 17, (S)-1-acryloyl-N-(2-(4-(4-(2-amino-4-(difluoromethyl)pyrimidin-5-yl)-6-morpholino-1,3,5-triazin-2-yl)piperazin-1-yl)-2-oxoethyl)-N-methylpiperidine-3-carboxamide], for which, on p110α (PI3Kα), the kinact/KI turned out to be 32700 M⁻¹ s⁻¹, the inhibitory constant (Ki) was determined as 7.66 nM and the kinact was determined as 0.000251 s⁻¹. The IC50 in data set [1] turned out to be 85.7 nM. In addition, in data set [2], the kchem turned out to be 0.00068 M⁻¹ s⁻¹.
The corresponding values for `C=CC(=O)N1CCC[C@@H]1C(=O)NCC(=O)N1CCN(c2nc(-c3cnc(N)nc3C(F)F)nc(N3CCOCC3)n2)CC1` [Compound 29, (R)-1-acryloyl-N-(2-(4-(4-(2-amino-4-(difluoromethyl)pyrimidin-5-yl)-6-morpholino-1,3,5-triazin-2-yl)piperazin-1-yl)-2-oxoethyl)pyrrolidine-2-carboxamide] are 40700 M⁻¹ s⁻¹, 6.74 nM, 0.000275 s⁻¹, 204 nM and 0.0079 M⁻¹ s⁻¹.
As to `C=CC(=O)N1CCCC[C@@H]1C(=O)N(C)CC(=O)N1CCN(c2nc(-c3cnc(N)nc3C(F)F)nc(N3CCOCC3)n2)CC1` [Compound 23, (R)-1-acryloyl-N-(2-(4-(4-(2-amino-4-(difluoromethyl)pyrimidin-5-yl)-6-morpholino-1,3,5-triazin-2-yl)piperazin-1-yl)-2-oxoethyl)-N-methylpiperidine-2-carboxamide], on p110α (PI3Kα), the kinact/KI is 27200 M⁻¹ s⁻¹, the inhibitory constant (Ki) was determined as 8.47 nM and the kinact stood at 0.000231 s⁻¹. The IC50 in data set [1] came out at 60.5 nM. Besides, in data set [2], the kchem stood at 0.001 M⁻¹ s⁻¹.
The corresponding values for `C=CC(=O)N1CCC[C@H]1C(=O)NCC(=O)N1CCN(c2nc(-c3cnc(N)nc3C(F)F)nc(N3CCOCC3)n2)CC1` [Compound 28, (S)-1-acryloyl-N-(2-(4-(4-(2-amino-4-(difluoromethyl)pyrimidin-5-yl)-6-morpholino-1,3,5-triazin-2-yl)piperazin-1-yl)-2-oxoethyl)pyrrolidine-2-carboxamide] are 44500 M⁻¹ s⁻¹, 6.32 nM, 0.000281 s⁻¹, 301 nM and 0.00655 M⁻¹ s⁻¹.
In the same order, the values of `C=CC(=O)N1CCC[C@@H](C(=O)NCC(=O)N2CCN(c3nc(-c4cnc(N)nc4C(F)F)nc(N4CCOCC4)n3)CC2)C1` [Compound 16, (R)-1-acryloyl-N-(2-(4-(4-(2-amino-4-(difluoromethyl)pyrimidin-5-yl)-6-morpholino-1,3,5-triazin-2-yl)piperazin-1-yl)-2-oxoethyl)piperidine-3-carboxamide] are 914000 M⁻¹ s⁻¹, 3.89 nM, 0.00356 s⁻¹, 27.5 nM and 0.00076 M⁻¹ s⁻¹.
Consider `C=CC(=O)N1CCCC[C@H]1C(=O)NCC(=O)N1CCN(c2nc(-c3cnc(N)nc3C(F)F)nc(N3CCOCC3)n2)CC1` [Compound 20, (S)-1-acryloyl-N-(2-(4-(4-(2-amino-4-(difluoromethyl)pyrimidin-5-yl)-6-morpholino-1,3,5-triazin-2-yl)piperazin-1-yl)-2-oxoethyl)piperidine-2-carboxamide], for which, at p110α (PI3Kα), the kinact/KI turned out to be 212000 M⁻¹ s⁻¹; the affinity, expressed as Ki, was 3.06 nM; the inactivation rate constant (kinact) is 0.00065 s⁻¹. Further, the IC50 in data set [1] was found to be 59.3 nM. For the same compound, the kchem in data set [2] is 0.00444 M⁻¹ s⁻¹.
For `CC(C)=CC(=O)CCC(=O)N1CCN(Cc2cc3nc(-c4cccc5[nH]ncc45)nc(N4CCOCC4)c3s2)CC1` [CNX-1351, 1-[4-[[2-(1H-indazol-4-yl)-4-(4-morpholinyl)thieno[3,2-d]pyrimidin-6-yl]methyl]-1-piperazinyl]-6-methyl-5-heptene-1,4-dione, reference compound], the half-maximal inhibitory concentration (IC50) in data set [1] is 164 nM. The metabolic stability entry in data set [3] is “metabolic instability”. In addition, the kchem in data set [2] was found to be 0.000222 M⁻¹ s⁻¹. For the same compound, the aqueous solubility entry in data set [4] was “low”.
Regarding `C=CC(=O)N1CCC[C@H](C(=O)NCC(=O)N2CCN(c3nc(-c4cnc(N)nc4C(F)F)nc(N4CCOCC4)n3)CC2)C1` [Compound 15, (S)-1-acryloyl-N-(2-(4-(4-(2-amino-4-(difluoromethyl)pyrimidin-5-yl)-6-morpholino-1,3,5-triazin-2-yl)piperazin-1-yl)-2-oxoethyl)piperidine-3-carboxamide], on p110α (PI3Kα), the kinact/KI worked out at 151000 M⁻¹ s⁻¹, the affinity corresponds to a Ki of 3.63 nM and the kinact was 0.000547 s⁻¹. Also, the IC50 in data set [1] was 133 nM. The kchem in data set [2] was 0.00073 M⁻¹ s⁻¹.
`C=CC(=O)N1CC(C(=O)NCCC(=O)N2CCN(c3nc(-c4cnc(N)nc4C(F)F)nc(N4CCOCC4)n3)CC2)C1` [Compound 35, 1-acryloyl-N-(3-(4-(4-(2-amino-4-(difluoromethyl)pyrimidin-5-yl)-6-morpholino-1,3,5-triazin-2-yl)piperazin-1-yl)-3-oxopropyl)azetidine-3-carboxamide]: at p110α (PI3Kα), the kinact/KI worked out at 126000 M⁻¹ s⁻¹, affinity was put at a Ki of 13.4 nM and the maximal inactivation rate constant (kinact) came to 0.00169 s⁻¹. Moreover, in data set [1], the IC50 is 609 nM. In addition, the kchem in data set [2] is 0.00662 M⁻¹ s⁻¹.
